From US10987342B2, “Methods and compositions for transdermal delivery of a non-sedative amount of dexmedetomidine” (Teikoku Pharma USA, Inc., priority 2013, dated 2021) come the findings set out here.

Read-outs that look alike come from different tables or passages of the source.

As to `Cc1cccc([C@H](C)c2cnc[nH]2)c1C` [dexmedetomidine, Dexmedetomidine], the solubility of dexmedetomidine entry is, setting by setting: (in Duro-Tak 87-2979) “less than 2%”; (in Duro-Tak 387/87-2353 (acid functionalized acrylate polymer)) 10-15%; (in hydroxyl functionalized acrylate polymer) “less than 1%”; (in levulinic acid) approximately 60%; (in oleic acid) approximately 40%.
